# Experimental data from patent US11001577B2, “Pesticidally active azetidine sulfones amide isoxazoline derivatives” (SYNGENTA PARTICIPATIONS AG, priority 2016, dated 2021).
# Read-outs that look alike come from different tables or passages of the source.
# Columns and labels:
# Type in all cases: in vivo
# Myzus persicae = Myzus persicae (green peach aphid) feeding/contact activity; conditions: 144 h
# Method: Myzus persicae (Green Peach Aphid):Feeding/Contact Activity
# (§1) Sunflower leaf discs were placed onto agar in a 24-well microtiter plate and sprayed with aqueous test solutions prepared from 10,000 ppm DMSO stock solutions. After drying, the leaf discs were infested with an aphid population of mixed ages. The samples were assessed for mortality 6 days after infestation.
# Thrips tabaci [1] = assay: Thrips tabaci (onion thrips) feeding/contact activity; conditions: 144 h
# Method: (§2) Thrips tabaci (Onion Thrips) Feeding/Contact Activity
# as §1, with “on” for “onto”, “in” for “in a”, “plates” for “plate”, “drying” for “drying,”, “a thrips” for “an aphid”
# Euschistus heros = Euschistus heros (neotropical brown stink bug), soybean leaves sprayed; conditions: 120 h, read-out: effect in at least one of the two categories (mortality or growth inhibition); for percent effect (mortality or growth inhibition) at 200 ppm: application rate 200 ppm, N2 nymphs, 5 days after infestation
# Method: Euschistus heros (Neotropical Brown Stink Bug)
# Soybean leaves on agar in 24-well microtiter plates were sprayed with aqueous test solutions prepared from 10,000 ppm DMSO stock solutions. After drying the leaves were infested with N2 nymphs. The samples were assessed for mortality and growth inhibition in comparison to untreated samples 5 days after infestation.
# Plutella xylostella [2] = assay: Plutella xylostella (diamond back moth), artificial diet; conditions: 120 h, read-out: effect in at least one of the two categories (mortality or growth inhibition); for percent effect (mortality or growth inhibition) at 200 ppm: application rate 200 ppm, L2 larvae, 5 days after infestation
# Method: Plutella xylostella (Diamond Back Moth)
# (§3) 24-well microtiter plates with artificial diet were treated with aqueous test solutions prepared from 10,000 ppm DMSO stock solutions by pipetting. After drying, the plates were infested with L2 larvae (10 to 15 per well). The samples were assessed for mortality and growth inhibition in comparison to untreated samples 5 days after infestation.
# Tetranychus urticae [3] = assay: Tetranychus urticae (two-spotted spider mite) feeding/contact activity; conditions: 192 h, read-out: mortality on mixed population (mobile stages)
# Method: (§4) Tetranychus urticae (Two-Spotted Spider Mite):Feeding/Contact Activity
# (§5) Bean leaf discs on agar in 24-well microtiter plates were sprayed with aqueous test solutions prepared from 10,000 ppm DMSO stock solutions. After drying the leaf discs were infested with a mite population of mixed ages. The samples were assessed for mortality on mixed population (mobile stages) 8 days after infestation.
# Spodoptera littoralis [4] = assay: Spodoptera littoralis (Egyptian cotton leaf worm), cotton leaf discs; conditions: foliar, 72 h; for percent control (mortality, anti-feedant effect or growth inhibition) at 200 ppm: application rate 200 ppm, L1 larvae, 3 days after infestation
# Method: Spodoptera littoralis (Egyptian Cotton Leaf Worm)
# Cotton leaf discs were placed onto agar in 24-well microtiter plates and sprayed with aqueous test solutions prepared from 10,000 ppm DMSO stock solutions. After drying the leaf discs were infested with five L1 larvae. The samples were assessed for mortality, anti-feeding effect, and growth inhibition in comparison to untreated samples 3 days after infestation. Control of Spodoptera littoralis by a test sample is given when at least one of the categories mortality, anti-feedant effect, and growth inhibition is higher than the untreated sample.
# Diabrotica balteata = Diabrotica balteata (corn root worm), maize sprouts sprayed; conditions: 96 h, read-out: effect in at least one of the two categories (mortality or growth inhibition); for percent effect (mortality or growth inhibition) at 200 ppm: application rate 200 ppm, L2 larvae, 4 days after infestation
# Method: Diabrotica balteata (Corn Root Worm)
# as §3, with “Maize sprouts placed onto an agar layer in 24-well” for “24-well”, “plates” for “plates with artificial diet”, “spraying.” for “pipetting.”, “(6” for “(10”, “10” for “15”, “4” for “5”
# Plutella xylostella [5] = assay: Comparative Example C1: Plutella xylostella feeding/contact activity
# Method: (§6) Compounds of the invention were tested alongside a number of compounds from WO 2013/026931.
# Plutella xylostella (Diamond Back Moth):Feeding/Contact Activity
# as §3, with “(%)” for “and growth inhibition in comparison to untreated samples”, “infestation at the various application rates” for “infestation.”
# Spodoptera littoralis [6] = assay: Comparative Example C2: Spodoptera littoralis feeding/contact activity; conditions: 3 days after infestation
# Method: as §6
# Spodoptera littoralis (Egyptian Cotton Leaf Worm):Feeding/Contact Activity
# (§7) Cotton leaf discs were placed onto agar in 24-well microtiter plates and sprayed with aqueous test solutions prepared from 10,000 ppm DMSO stock solutions. After drying the leaf discs were infested with five L1 larvae. The samples were assessed for mortality (%) 3 days after infestation at the various application rates.
# Thrips tabaci [7] = assay: Comparative Example C4: Thrips tabaci feeding/contact activity; conditions: 6 days after infestation
# Method: as §6, §2
# as §7, with “Sunflower” for “Cotton”, “on” for “onto”, “a thrips population of mixed ages.” for “five L1 larvae.”, “6” for “3”
# Tetranychus urticae [8] = assay: Comparative Example C3: Tetranychus urticae feeding/contact activity; conditions: mobile stages, 8 days after infestation
# Method: as §6, §4
# as §5, with “mixed population (%) (mobile stages)” for “mixed population (mobile stages)”, “days after infestation at the various application rates.” for “days after infestation.”
# [9] = application rate 200 ppm, mixed ages, 6 days after infestation, read-out: mortality
# [10] = application rate 200 ppm, 8 days after infestation
compound,measurement,setting,value
"Cc1cc(C2=NO[C@@](c3cc(Cl)cc(Cl)c3)(C(F)(F)F)C2)ccc1C(=O)NC1CN(S(=O)(=O)N(C)C)C1 [Compound A03, 4-[(5S)-5-(3,5-dichlorophenyl)-5-(trifluoromethyl)-4H-isoxazol-3-yl]-N-[1-(dimethylsulfamoyl)azetidin-3-yl]-2-methyl-benzamide]",mortality at 200 ppm,Myzus persicae; [9],≥ 80%
same,mortality at 200 ppm,Thrips tabaci [1]; [9],≥ 80%
same,percent effect (mortality or growth inhibition) at 200 ppm,Euschistus heros,≥ 80%
same,percent effect (mortality or growth inhibition) at 200 ppm,Plutella xylostella [2],≥ 80%
same,mortality at 200 ppm,Tetranychus urticae [3]; [10],≥ 80%
same,"percent control (mortality, anti-feedant effect or growth inhibition) at 200 ppm",Spodoptera littoralis [4],≥ 80%
same,percent effect (mortality or growth inhibition) at 200 ppm,Diabrotica balteata,≥ 80%
"Cc1cc(C2=NO[C@@](c3cc(Cl)cc(Cl)c3)(C(F)(F)F)C2)ccc1C(=O)NC1CN(S(=O)(=O)C2CC2)C1 [Compound A04, N-(1-cyclopropylsulfonylazetidin-3-yl)-4-[(5S)-5-(3,5-dichlorophenyl)-5-(trifluoromethyl)-4H-isoxazol-3-yl]-2-methyl-benzamide]",percent effect (mortality or growth inhibition) at 200 ppm,Euschistus heros,≥ 80%
same,percent effect (mortality or growth inhibition) at 200 ppm,Plutella xylostella [2],≥ 80%
same,mortality at 200 ppm,Tetranychus urticae [3]; [10],≥ 80%
same,"percent control (mortality, anti-feedant effect or growth inhibition) at 200 ppm",Spodoptera littoralis [4],≥ 80%
same,percent effect (mortality or growth inhibition) at 200 ppm,Diabrotica balteata,≥ 80%
Cc1cc(C2=NOC(c3cc(Cl)cc(Cl)c3)(C(F)(F)F)C2)ccc1C(=O)NC1CN(S(=O)(=O)F)C1 (stereo not drawn) [Compound A06],Plutella xylostella larval average mortality (%),Plutella xylostella [5]; application rate 0.195 ppm,80%
same,Plutella xylostella larval average mortality (%),Plutella xylostella [5]; application rate 0.781 ppm,100%
same,Plutella xylostella larval average mortality (%),Plutella xylostella [5]; application rate 3.12 ppm,100%
same,Plutella xylostella larval average mortality (%),Plutella xylostella [5]; application rate 12.5 ppm,100%
same,Plutella xylostella larval average mortality (%),Plutella xylostella [5]; application rate 50 ppm,100%
same,Plutella xylostella larval average mortality (%),Plutella xylostella [5]; application rate 200 ppm,100%
same,Spodoptera littoralis larval average mortality (%),Spodoptera littoralis [6]; application rate 0.195 ppm,100%
same,Spodoptera littoralis larval average mortality (%),Spodoptera littoralis [6]; application rate 0.781 ppm,100%
same,Spodoptera littoralis larval average mortality (%),Spodoptera littoralis [6]; application rate 3.12 ppm,100%
same,Spodoptera littoralis larval average mortality (%),Spodoptera littoralis [6]; application rate 12.5 ppm,100%
same,Spodoptera littoralis larval average mortality (%),Spodoptera littoralis [6]; application rate 50 ppm,100%
same,Spodoptera littoralis larval average mortality (%),Spodoptera littoralis [6]; application rate 200 ppm,100%
same,Thrips tabaci mixed population average mortality (%),Thrips tabaci [7]; application rate 0.195 ppm,0%
same,Thrips tabaci mixed population average mortality (%),Thrips tabaci [7]; application rate 0.781 ppm,100%
same,Thrips tabaci mixed population average mortality (%),Thrips tabaci [7]; application rate 3.12 ppm,100%
same,Thrips tabaci mixed population average mortality (%),Thrips tabaci [7]; application rate 12.5 ppm,100%
same,Thrips tabaci mixed population average mortality (%),Thrips tabaci [7]; application rate 50 ppm,100%
same,Thrips tabaci mixed population average mortality (%),Thrips tabaci [7]; application rate 200 ppm,100%
same,Tetranychus urticae mixed population average mortality (%),Tetranychus urticae [8]; application rate 0.195 ppm,0%
same,Tetranychus urticae mixed population average mortality (%),Tetranychus urticae [8]; application rate 0.781 ppm,100%
same,Tetranychus urticae mixed population average mortality (%),Tetranychus urticae [8]; application rate 3.12 ppm,100%
same,Tetranychus urticae mixed population average mortality (%),Tetranychus urticae [8]; application rate 12.5 ppm,100%
same,Tetranychus urticae mixed population average mortality (%),Tetranychus urticae [8]; application rate 50 ppm,100%
same,Tetranychus urticae mixed population average mortality (%),Tetranychus urticae [8]; application rate 200 ppm,100%
"Cc1cc(C2=NO[C@@](c3cc(Cl)cc(C(F)(F)F)c3)(C(F)(F)F)C2)ccc1C(=O)NC1CN(S(=O)(=O)F)C1 [Compound A10, 3-[[4-[(5S)-5-[3-chloro-5-(trifluoromethyl)phenyl]-5-(trifluoromethyl)-4H-isoxazol-3-yl]-2-methyl-benzoyl]amino]azetidine-1-sulfonyl fluoride]",mortality at 200 ppm,Myzus persicae,≥ 80%
same,mortality at 200 ppm,Thrips tabaci [1],≥ 80%
same,percent control (mortality or growth inhibition) at 200 ppm,Euschistus heros,≥ 80%
same,percent control (mortality or growth inhibition) at 200 ppm,Plutella xylostella [2],≥ 80%
same,mortality at 200 ppm,Tetranychus urticae [3],≥ 80%
same,mortality at 200 ppm,"Spodoptera littoralis [4]; read-out: control (mortality, anti-feedant effect, growth inhibition)",≥ 80%
same,percent control (mortality or growth inhibition) at 200 ppm,Diabrotica balteata,≥ 80%
"Cc1cc(C2=NO[C@@](c3cc(Cl)c(F)c(Cl)c3)(C(F)(F)F)C2)ccc1C(=O)NC1CN(S(N)(=O)=O)C1 [Compound A12, 4-[(5S)-5-(3,5-dichloro-4-fluoro-phenyl)-5-(trifluoromethyl)-4H-isoxazol-3-yl]-2-methyl-N-(1-sulfamoylazetidin-3-yl)benzamide]",mortality at 200 ppm,Myzus persicae; [9],≥ 80%
same,mortality at 200 ppm,Thrips tabaci [1]; [9],≥ 80%
same,percent effect (mortality or growth inhibition) at 200 ppm,Euschistus heros,≥ 80%
same,percent effect (mortality or growth inhibition) at 200 ppm,Plutella xylostella [2],≥ 80%
same,mortality at 200 ppm,Tetranychus urticae [3]; [10],≥ 80%
same,"percent control (mortality, anti-feedant effect or growth inhibition) at 200 ppm",Spodoptera littoralis [4],≥ 80%
same,percent effect (mortality or growth inhibition) at 200 ppm,Diabrotica balteata,≥ 80%
"Cc1cc(C2=NO[C@@](c3cc(Cl)c(F)c(Cl)c3)(C(F)(F)F)C2)ccc1C(=O)NC1CN(S(=O)(=O)N(CC(F)(F)F)CC(F)(F)F)C1 [Compound A13, N-[1-[bis(2,2,2-trifluoroethyl)sulfamoyl]azetidin-3-yl]-4-[(5S)-5-(3,5-dichloro-4-fluoro-phenyl)-5-(trifluoromethyl)-4H-isoxazol-3-yl]-2-methyl-benzamide]",mortality at 200 ppm,Myzus persicae; [9],≥ 80%
same,mortality at 200 ppm,Thrips tabaci [1]; [9],≥ 80%
same,percent effect (mortality or growth inhibition) at 200 ppm,Plutella xylostella [2],≥ 80%
same,mortality at 200 ppm,Tetranychus urticae [3]; [10],≥ 80%
same,"percent control (mortality, anti-feedant effect or growth inhibition) at 200 ppm",Spodoptera littoralis [4],≥ 80%
same,percent effect (mortality or growth inhibition) at 200 ppm,Diabrotica balteata,≥ 80%
"Cc1cc(C2=NO[C@@](c3cc(Cl)c(F)c(Cl)c3)(C(F)(F)F)C2)ccc1C(=O)NC1CN(S(=O)(=O)NCC(F)(F)F)C1 [Compound A14, 4-[(5S)-5-(3,5-dichloro-4-fluoro-phenyl)-5-(trifluoromethyl)-4H-isoxazol-3-yl]-2-methyl-N-[1-(2,2,2-trifluoroethylsulfamoyl)azetidin-3-yl]benzamide]",mortality at 200 ppm,Myzus persicae; [9],≥ 80%
same,mortality at 200 ppm,Thrips tabaci [1]; [9],≥ 80%
same,percent effect (mortality or growth inhibition) at 200 ppm,Euschistus heros,≥ 80%
same,percent effect (mortality or growth inhibition) at 200 ppm,Plutella xylostella [2],≥ 80%
same,mortality at 200 ppm,Tetranychus urticae [3]; [10],≥ 80%
same,"percent control (mortality, anti-feedant effect or growth inhibition) at 200 ppm",Spodoptera littoralis [4],≥ 80%
same,percent effect (mortality or growth inhibition) at 200 ppm,Diabrotica balteata,≥ 80%
"Cc1cc(C2=NO[C@@](c3cc(Cl)cc(C(F)(F)F)c3)(C(F)(F)F)C2)ccc1C(=O)NC1CN(S(=O)(=O)OCC(F)(F)F)C1 [Compound A18, 2,2,2-trifluoroethyl 3-[[4-[(5S)-5-[3-chloro-5-(trifluoromethyl)phenyl]-5-(trifluoromethyl)-4H-isoxazol-3-yl]-2-methyl-benzoyl]amino]azetidine-1-sulfonate]",mortality at 200 ppm,Thrips tabaci [1]; [9],≥ 80%
same,percent effect (mortality or growth inhibition) at 200 ppm,Euschistus heros,≥ 80%
same,percent effect (mortality or growth inhibition) at 200 ppm,Plutella xylostella [2],≥ 80%
same,mortality at 200 ppm,Tetranychus urticae [3]; [10],≥ 80%
same,"percent control (mortality, anti-feedant effect or growth inhibition) at 200 ppm",Spodoptera littoralis [4],≥ 80%
same,percent effect (mortality or growth inhibition) at 200 ppm,Diabrotica balteata,≥ 80%
